As a reminder, the pIC50 is the negative decadic logarithm of the IC50, by convention in mol/L. A lower pIC50 goes with a large IC50.

Each structure is given as a SMILES string. pIC50: −log10 of the molar value.

The record followed here is ChEMBL document CHEMBL1128005, “Piperidine-ether based hNK1 antagonists 1: Determination of the relative and absolute stereochemical requirements” (Bioorg Med Chem Lett, 1994).

The experiment deals with Substance-P receptor (Homo sapiens, UniProt P25103). In words: Compound was tested for the displacement of […] Substance P from hNK1 receptor in CHO cells. Type of experiment: cell-based.
Chain of Substance-P receptor (P25103 whole entry): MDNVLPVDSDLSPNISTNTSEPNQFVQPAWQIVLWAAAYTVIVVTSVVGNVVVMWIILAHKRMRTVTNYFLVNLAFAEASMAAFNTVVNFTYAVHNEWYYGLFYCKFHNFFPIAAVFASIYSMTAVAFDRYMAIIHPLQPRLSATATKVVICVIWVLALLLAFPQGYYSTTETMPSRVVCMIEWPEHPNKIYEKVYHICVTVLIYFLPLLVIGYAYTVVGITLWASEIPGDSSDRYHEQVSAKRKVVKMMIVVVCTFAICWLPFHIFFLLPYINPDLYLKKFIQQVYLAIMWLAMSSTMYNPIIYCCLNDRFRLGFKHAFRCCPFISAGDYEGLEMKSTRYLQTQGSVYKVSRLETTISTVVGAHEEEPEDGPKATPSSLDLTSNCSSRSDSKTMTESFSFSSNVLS
Regarding `FC(F)(F)c1cc(CO[C@H]2CCCN[C@@H]2c2ccccc2)cc(C(F)(F)F)c1`, the negative logarithm of the IC50 (pIC50) was 6.52.
`FC(F)(F)c1cc(CO[C@H]2CCN[C@H]2c2ccccc2)cc(C(F)(F)F)c1` (racemic) had a pIC50 of 8.15.
With `FC(F)(F)c1cc(CO[C@@H]2CCCN[C@@H]2c2ccccc2)cc(C(F)(F)F)c1` (stereo in doubt) the figure was 6.46; with `FC(F)(F)c1cc(CO[C@@H]2CCCN[C@@H]2c2ccccc2)cc(C(F)(F)F)c1` (stereo in doubt; (+/-)2), 8.85.
